Test results: ChEMBL document CHEMBL1201862, “PubChem BioAssay data set” (2004)
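Method: 48-hour compound exposure of cells in 96-well plates, five concentrations, linear interpolation of endpoints. The concentration for 50% growth inhibition is given as GI50.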 Calls of active or inactive are those of the source. No stated cut-off is given here; in the data, active = GI50 up to about 1.1 µM and inactive = higher.

Columns and labels:
Test in all cases: growth of human tumour cells (NCI), 48 h
HCC 2998 = test system: HCC 2998
COLO 205 = test system: COLO 205
HOP-62 = test system: HOP-62
LOX IMVI = test system: LOX IMVI
MDA-MB-435 = test system: MDA-MB-435
M14 = test system: M14
MDA-N = test system: MDA-N
SK-MEL-5 = test system: SK-MEL-5
UACC-62 = test system: UACC-62
OVCAR-3 = test system: OVCAR-3
SF-539 = test system: SF-539
OVCAR-8 = test system: OVCAR-8
SF-295 = test system: SF-295
PC-3 = test system: PC-3
NCI-H522 = test system: NCI-H522
HOP-92 = test system: HOP-92
A498 = test system: A498
OVCAR-4 = test system: OVCAR-4
Malme-3M = test system: Malme-3M
SNB-19 = test system: SNB-19

Measured: GI50

O=C(O)COc1cc(-c2ccccc2)nc2ccc(F)cc12
inactive: HCC 2998 98.6 µM | COLO 205 > 100 µM | HOP-62 > 100 µM | LOX IMVI > 100 µM | MDA-MB-435 > 100 µM | M14 > 100 µM | MDA-N > 100 µM | SK-MEL-5 > 100 µM | UACC-62 > 100 µM | OVCAR-3 > 100 µM | SF-539 > 100 µM | OVCAR-8 > 100 µM | SF-295 > 100 µM | PC-3 > 100 µM | NCI-H522 58.1 µM | HOP-92 > 100 µM | A498 > 100 µM | OVCAR-4 > 100 µM | Malme-3M > 100 µM | SNB-19 > 100 µM
